Legend:
Rattus norvegicus [1] = assay: Antiprogestin activity against ovariectomized po dosed Sprague-Dawley rat assessed as effect on ethinyl estradiol-induced C3 expression; type: functional; details: read-out: ID50 (the source's name)
Rattus norvegicus [2] = assay: Antiprogestin activity against ovariectomized Sprague-Dawley rat assessed as effect on ethinyl estradiol-induced C3 expression at 10 mg/kg, po; type: functional
[3] = Tmax in rat at 10 mg/kg, po; type: ADME, organism-based; design: dose 10 mg/kg, route oral; details: in vivo
Rattus norvegicus [4] = assay: AUC (0 to infinity) in rat at 10 mg/kg, po; type: ADME, organism-based, Plasma; design: dose 10 mg/kg, route oral, time infinity; details: in vivo
Rattus norvegicus [5] = assay: AUC (last) in rat at 10 mg/kg, po; type: ADME, organism-based, Plasma; design: time 0 - last, dose 10 mg/kg, route oral; details: in vivo
[6] = Cmax in rat at 10 mg/kg, po; type: ADME, organism-based; design: dose 10 mg/kg, route oral; details: in vivo
[7] = Half life in rat at 10 mg/kg, po; type: ADME, organism-based; design: dose 10 mg/kg, route oral; details: in vivo
[8] = Mean retention time in rat at 10 mg/kg, po; type: ADME, organism-based; design: dose 10 mg/kg, route oral; details: in vivo
[9] = Mean retention time in rat at 30 mg/kg, po; type: ADME, organism-based; design: dose 30 mg/kg, route oral; details: in vivo
[10] = Half life in rat at 30 mg/kg, po; type: ADME, organism-based; design: dose 30 mg/kg, route oral; details: in vivo
Rattus norvegicus [11] = assay: AUC (0 to infinity) in rat at 30 mg/kg, po; type: ADME, organism-based, Plasma; design: time infinity, dose 30 mg/kg, route oral; details: in vivo
[12] = Tmax in rat at 30 mg/kg, po; type: ADME, organism-based; design: dose 30 mg/kg, route oral; details: in vivo
Rattus norvegicus [13] = assay: AUC (last) in rat at 30 mg/kg, po; type: ADME, organism-based, Plasma; design: time 0 - last, dose 30 mg/kg, route oral; details: in vivo
[14] = Cmax in rat at 30 mg/kg, po; type: ADME, organism-based; design: dose 30 mg/kg, route oral; details: in vivo

CC#C[C@]1(O)CC[C@H]2[C@@H]3OCC4=CC(=O)CCC4=C3[C@@H](c3ccc(N(C)C)cc3)C[C@@]21C
ED50 (Rattus norvegicus [1]): 2.4 mg/kg
Efficacy (Rattus norvegicus [2]): 110%

CN(C)c1ccc([C@H]2C[C@@]3(C)[C@@H](CC[C@@]3(O)C#Cc3ccc(F)cc3)[C@@H]3OCC4=CC(=O)CCC4=C32)cc1
Tmax [3]: 3 h
AUC (Rattus norvegicus [4]): 505 ng·h/mL
AUC (Rattus norvegicus [5]): 460 ng·h/mL
Cmax [6]: 48.7 ng/mL
half-life [7]: 6.88 h
MRT [8]: 9.4 h

CN(C)c1ccc([C@H]2C[C@@]3(C)[C@@H](CC[C@@]3(O)C#Cc3ccccc3)[C@@H]3OCC4=CC(=O)CCC4=C32)cc1
ED50 (Rattus norvegicus [1]): 2.5 mg/kg
Efficacy (Rattus norvegicus [2]): 100%

CC#C[C@]1(O)CC[C@H]2[C@@H]3CCC4=CC(=O)CCC4=C3[C@@H](c3ccc(N(C)C)cc3)C[C@@]21C [MIFEPRISTONE]
MRT [9]: 8 h
ED50 (Rattus norvegicus [1]): 2.1 mg/kg
Efficacy (Rattus norvegicus [2]): 130%
half-life [10]: 5.56 h
AUC (Rattus norvegicus [11]): 3570 ng·h/mL
Tmax [12]: 12.5 h
AUC (Rattus norvegicus [13]): 446 ng·h/mL
Cmax [14]: 53.8 ng/mL

From ChEMBL document CHEMBL1157482, “Insight from molecular modeling into different conformation and SAR of natural steroids and unnatural 7-oxa-steroids” (Bioorg Med Chem Lett, 2008)
